“And” between values parts separate entries of the source, which are not always exact repeats. Equal entries are not always repeated. Toxic doses and inconclusive results are not listed.
Test system: L1210 leukemia ip in BDF1 mice, survival T/C
Experiment: NCI In Vivo Anticancer Drug Screen. Data for tumor model L1210 Leukemia (intraperitoneal) in B6D2F1 (BDF1) mice
Conditions: endpoint: mean survival time, higher = longer survival
In short: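 Survival endpoint. Drug-treated group vs vehicle group, expressed as T divided by C. Tumor passaged by transplantation.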

[1] = dose: 100.0 mg/kg/injection, schedule: Q04DX003 (ip), vehicle: saline with Tween-80
[2] = dose: 200.0 mg/kg/injection, schedule: Q04DX003 (ip), vehicle: saline with Tween-80
[3] = dose: 400.0 mg/kg/injection, schedule: Q04DX003 (ip), vehicle: saline with Tween-80
[4] = dose: 100.0 mg/kg/injection, schedule: Q01DX009 (ip), vehicle: Klucel (hydroxypropylcellulose) (HPC)
[5] = dose: 100.0 mg/kg/injection, schedule: Q04DX003 (ip), vehicle: Klucel (hydroxypropylcellulose) (HPC)
[6] = dose: 200.0 mg/kg/injection, schedule: Q01DX009 (ip), vehicle: Klucel (hydroxypropylcellulose) (HPC)
[7] = dose: 200.0 mg/kg/injection, schedule: Q04DX003 (ip), vehicle: Klucel (hydroxypropylcellulose) (HPC)
[8] = dose: 400.0 mg/kg/injection, schedule: Q04DX003 (ip), vehicle: Klucel (hydroxypropylcellulose) (HPC)
[9] = dose: 100.0 mg/kg/injection, schedule: Q01DX001 (ip), vehicle: saline
[10] = dose: 200.0 mg/kg/injection, schedule: Q01DX001 (ip), vehicle: saline
[11] = dose: 400.0 mg/kg/injection, schedule: Q01DX001 (ip), vehicle: saline
[12] = dose: 100.0 mg/kg/injection, schedule: Q01DX009 (ip), vehicle: saline
[13] = dose: 200.0 mg/kg/injection, schedule: Q01DX009 (ip), vehicle: saline
[14] = dose: 400.0 mg/kg/injection, schedule: Q01DX009 (ip), vehicle: Klucel (hydroxypropylcellulose) (HPC)
[15] = dose: 100.0 mg/kg/injection, schedule: Q04DX003 (ip), vehicle: saline
[16] = dose: 200.0 mg/kg/injection, schedule: Q04DX003 (ip), vehicle: saline
[17] = dose: 400.0 mg/kg/injection, schedule: Q04DX003 (ip), vehicle: saline
[18] = dose: 100.0 mg/kg/injection, schedule: Q01DX001 (ip), vehicle: carboxymethylcellulose (CMC)
[19] = dose: 200.0 mg/kg/injection, schedule: Q01DX001 (ip), vehicle: carboxymethylcellulose (CMC)
[20] = dose: 400.0 mg/kg/injection, schedule: Q01DX001 (ip), vehicle: carboxymethylcellulose (CMC)
[21] = dose: 50.0 mg/kg/injection, schedule: Q01DX001 (ip), vehicle: saline

SMILES: COC(=O)c1ccc(OC)c2nc3c(C=O)c(OC)cc(OC)c3nc12
- T/C [1]: 102 % of control
- T/C [2]: 109 % of control
- T/C [3]: 95 % of control

SMILES: CC(=O)N(N=Nc1ccccc1)c1cccc2ccccc12
- T/C [4]: 116 % of control
- T/C [5]: 108 % of control
- T/C [6]: 96 % of control
- T/C [7]: 109 % of control
- T/C [8]: 108 % of control

SMILES: O=C(NCCCl)NC1OCC(O)C(O)C1O (centres undefined)
- T/C [9]: 112 % of control
- T/C [10]: 97 % of control
- T/C [11]: 103 % of control

SMILES: Cc1nc2ccccc2cc1CO
- T/C [1]: 105 % of control
- T/C [2]: 102 % of control
- T/C [3]: 102 % of control

SMILES: Cc1cc(Cl)ccc1OCC(=O)OCCC1=CCC2CC1C2(C)C (centres undefined)
- T/C [12]: 94 % of control
- T/C [13]: 100 % of control
- T/C (dose: 400.0 mg/kg/injection, schedule: Q01DX009 (ip), vehicle: saline): 102 % of control

SMILES: Cc1cc(Cl)ccc1NC(=O)c1ccc([N+](=O)[O-])cc1
- T/C (dose: 100.0 mg/kg/injection, schedule: Q01DX009 (ip), vehicle: saline with Tween-80): 92 % of control
- T/C [1]: 92 % of control
- T/C (dose: 200.0 mg/kg/injection, schedule: Q01DX009 (ip), vehicle: saline with Tween-80): 86 % of control
- T/C [2]: 93 % of control
- T/C [3]: 92 % of control

SMILES: Cc1cccc(C)c1NC(=O)Nc1ccc(C(=O)O)c(O)c1
- T/C [4]: 110 % of control
- T/C [6]: 95 % of control
- T/C [14]: 97 % of control

SMILES: O=C(N/N=C/c1ccc2c(c1)CCC2)c1ccc(S(=O)(=O)O)cc1
- T/C [5]: 97 % of control
- T/C [7]: 104 % of control
- T/C [8]: 97 % of control

SMILES: N#CCCN(CCc1ccccn1)C(=S)Nc1cccc(C(F)(F)F)c1
- T/C (dose: 100.0 mg/kg/injection, schedule: Q01DX009 (ip), vehicle: other): 110 % of control
- T/C (dose: 200.0 mg/kg/injection, schedule: Q01DX009 (ip), vehicle: other): 98 % of control
- T/C (dose: 400.0 mg/kg/injection, schedule: Q01DX009 (ip), vehicle: other): 110 % of control

SMILES: CC(C)(C)C(=O)C/C=N/Nc1ccc([N+](=O)[O-])cc1[N+](=O)[O-]
- T/C [9]: 96 % of control
- T/C [10]: 106 % of control
- T/C [11]: 100 % of control

SMILES: Cc1cccc(C2NC(=O)N3C(c4cccc(C)c4)NC(=O)N23)c1 (centres undefined)
- T/C (dose: 100.0 mg/kg/injection, schedule: Q01DX009 (ip), vehicle: gum acacia): 89 % of control
- T/C (dose: 100.0 mg/kg/injection, schedule: Q04DX003 (ip), vehicle: gum acacia): 88 % of control
- T/C (dose: 200.0 mg/kg/injection, schedule: Q01DX009 (ip), vehicle: gum acacia): 88 % of control
- T/C (dose: 200.0 mg/kg/injection, schedule: Q04DX003 (ip), vehicle: gum acacia): 93 % of control
- T/C (dose: 400.0 mg/kg/injection, schedule: Q04DX003 (ip), vehicle: gum acacia): 90 % of control

SMILES: CC(C(N)=O)N1C(=O)C2C3CCC(C3)C2C1=O (centres undefined)
- T/C [15]: 103 % of control
- T/C [16]: 91 % of control
- T/C [17]: 86 % of control

SMILES: CCCCCCCCCCCCCCCC(C)(C)O
- T/C [4]: 102 % of control
- T/C [5]: 96 % of control
- T/C [6]: 100 % of control
- T/C [7]: 96 % of control
- T/C [14]: 102 % of control
- T/C [8]: 101 % of control

SMILES: Nc1cc(=O)[nH]c(O)c1C(=O)O
- T/C [1]: 98 % of control and 90 % of control
- T/C [2]: 97 % of control
- T/C [3]: 94 % of control

SMILES: CC1NC=NC1C(c1ccccc1)c1ccccc1 (centres undefined)
- T/C [1]: 101 % of control

SMILES: CC(=O)OC1=C(OC(C)=O)N(S(=O)(=O)c2ccc(C)cc2)CCc2ccccc21
- T/C [18]: 97 % of control
- T/C [19]: 94 % of control
- T/C [20]: 100 % of control

SMILES: COc1ccc(S(=O)(=O)/N=C(/C2CC3=CCC4C5CCC(=O)C5(C)CC(=O)C4C3(C)C2)N2CCCC2)cc1 (centres undefined)
- T/C (dose: 100.0 mg/kg/injection, schedule: Q01DX001 (ip), vehicle: other): 103 % of control
- T/C (dose: 200.0 mg/kg/injection, schedule: Q01DX001 (ip), vehicle: other): 108 % of control
- T/C (dose: 400.0 mg/kg/injection, schedule: Q01DX001 (ip), vehicle: other): 98 % of control

SMILES: O=C(NP(=O)(N1CC1)N1CC1)OCc1ccccc1
- T/C (dose: 3.0 mg/kg/injection, schedule: Q01DX Z (ip), vehicle: saline): 118 % of control and 122 % of control
- T/C (dose: 3.13 mg/kg/injection, schedule: Q01DX006 (iv), vehicle: clinical formulation): 118 % of control
- T/C (dose: 3.13 mg/kg/injection, schedule: Q01DX009 (ip), vehicle: saline): 118 % of control and 120 % of control
- T/C (dose: 6.0 mg/kg/injection, schedule: Q01DX Z (ip), vehicle: saline): 104 % of control
- T/C (dose: 6.25 mg/kg/injection, schedule: Q01DX006 (iv), vehicle: clinical formulation): 115 % of control
- T/C (dose: 6.25 mg/kg/injection, schedule: Q01DX009 (ip), vehicle: saline): 109 % of control and 121 % of control
- T/C (dose: 10.0 mg/kg/injection, schedule: Q01DX006 (iv), vehicle: saline): 117 % of control
- T/C (dose: 12.0 mg/kg/injection, schedule: Q01DX Z (ip), vehicle: saline): 196 % of control
- T/C (dose: 12.5 mg/kg/injection, schedule: Q01DX001 (ip), vehicle: saline): 93 % of control
- T/C (dose: 12.5 mg/kg/injection, schedule: Q01DX006 (iv), vehicle: clinical formulation): 120 % of control
- T/C (dose: 12.5 mg/kg/injection, schedule: Q01DX009 (ip), vehicle: saline): 97 % of control and 114 % of control
- T/C (dose: 20.0 mg/kg/injection, schedule: Q01DX006 (iv), vehicle: saline): 117 % of control
- T/C (dose: 25.0 mg/kg/injection, schedule: Q01DX001 (ip), vehicle: saline): 93 % of control
- T/C (dose: 25.0 mg/kg/injection, schedule: Q01DX009 (ip), vehicle: saline): 101 % of control and 109 % of control
- T/C (dose: 48.0 mg/kg/injection, schedule: Q01DX Z (ip), vehicle: saline): 123 % of control
- T/C [21]: 103 % of control
- T/C (dose: 50.0 mg/kg/injection, schedule: Q01DX006 (iv), vehicle: clinical formulation): 153 % of control
- T/C (dose: 50.0 mg/kg/injection, schedule: Q01DX009 (ip), vehicle: saline): 124 % of control
- T/C (dose: 50.0 mg/kg/injection, schedule: Q01DX010 (oral), vehicle: saline): 100 % of control
- T/C (dose: 80.0 mg/kg/injection, schedule: Q01DX006 (iv), vehicle: saline): 156 % of control
- T/C [9]: 98 % of control
- T/C (dose: 100.0 mg/kg/injection, schedule: Q01DX010 (oral), vehicle: saline): 111 % of control
- T/C (dose: 200.0 mg/kg/injection, schedule: Q01DX010 (oral), vehicle: saline): 105 % of control
- T/C (dose: 400.0 mg/kg/injection, schedule: Q01DX010 (oral), vehicle: saline): 106 % of control

SMILES: CCOC(C)c1ccccc1 (centres undefined)
- T/C [19]: 95 % of control

SMILES: Cc1ccccc1NC(=S)Nc1ccccc1
- T/C (dose: 100.0 mg/kg/injection, schedule: Q04DX002 (ip), vehicle: gum acacia): 96 % of control
- T/C (dose: 200.0 mg/kg/injection, schedule: Q04DX002 (ip), vehicle: gum acacia): 96 % of control
- T/C (dose: 400.0 mg/kg/injection, schedule: Q04DX002 (ip), vehicle: gum acacia): 89 % of control

SMILES: Cc1cc2nc3c(=O)[nH]c(=O)nc-3n(CCOC(=O)CCC(=O)O)c2cc1C
- T/C [21]: 116 % of control
- T/C [9]: 103 % of control
- T/C [10]: 114 % of control
- T/C [11]: 103 % of control

SMILES: CCOC(=O)CCc1ccc(O)c(O)c1
- T/C [12]: 100 % of control
- T/C [15]: 92 % of control
- T/C [13]: 102 % of control
- T/C [16]: 111 % of control
- T/C [17]: 101 % of control

SMILES: C/C=C/CC/C(=N\Nc1ccc([N+](=O)[O-])cc1[N+](=O)[O-])c1ccccc1
- T/C (dose: 100.0 mg/kg/injection, schedule: Q01DX001 (ip), vehicle: Klucel (hydroxypropylcellulose) (HPC)): 96 % of control
- T/C (dose: 200.0 mg/kg/injection, schedule: Q01DX001 (ip), vehicle: Klucel (hydroxypropylcellulose) (HPC)): 96 % of control
- T/C (dose: 400.0 mg/kg/injection, schedule: Q01DX001 (ip), vehicle: Klucel (hydroxypropylcellulose) (HPC)): 100 % of control

SMILES: CC1(c2ccccc2)CC(c2ccccc2)=C(C#N)C(=O)N1 (centres undefined)
- T/C [9]: 98 % of control
- T/C [10]: 91 % of control
- T/C [11]: 104 % of control

SMILES: COc1ccc(CCNC(=O)Cc2ccc([N+](=O)[O-])cc2)cc1OC
- T/C [18]: 89 % of control
- T/C [19]: 98 % of control
- T/C [20]: 93 % of control

— PubChem BioAssay AID248 (DTP/NCI, 2004)
